According to PubChem BioAssay AID248 (DTP/NCI, 2004):
“And” between values parts separate entries of the source, which are not always exact repeats. Equal entries are not always repeated. Toxic doses and inconclusive results are not listed.

System: L1210 leukemia ip in BDF1 mice, survival T/C
Test: NCI In Vivo Anticancer Drug Screen. Data for tumor model L1210 Leukemia (intraperitoneal) in B6D2F1 (BDF1) mice
Settings: endpoint: mean survival time, higher = longer survival
Summary of the method: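 Transplanted-tumor mice were given test agent; controls received vehicle only. Survival readings from the two groups were divided (treated over control).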

[1] = dose: 100.0 mg/kg/injection, schedule: Q01DX001 (ip), vehicle: saline
[2] = dose: 200.0 mg/kg/injection, schedule: Q01DX001 (ip), vehicle: saline
[3] = dose: 400.0 mg/kg/injection, schedule: Q01DX001 (ip), vehicle: saline
[4] = dose: 100.0 mg/kg/injection, schedule: Q01DX009 (ip), vehicle: Klucel (hydroxypropylcellulose) (HPC)
[5] = dose: 200.0 mg/kg/injection, schedule: Q01DX009 (ip), vehicle: Klucel (hydroxypropylcellulose) (HPC)
[6] = dose: 400.0 mg/kg/injection, schedule: Q01DX009 (ip), vehicle: Klucel (hydroxypropylcellulose) (HPC)
[7] = dose: 300.0 mg/kg/injection, schedule: Q01DX001 (ip), vehicle: saline
[8] = dose: 400.0 mg/kg/injection, schedule: Q01DX009 (ip), vehicle: saline
[9] = dose: 100.0 mg/kg/injection, schedule: Q04DX003 (ip), vehicle: Klucel (hydroxypropylcellulose) (HPC)
[10] = dose: 200.0 mg/kg/injection, schedule: Q04DX003 (ip), vehicle: Klucel (hydroxypropylcellulose) (HPC)
[11] = dose: 400.0 mg/kg/injection, schedule: Q04DX003 (ip), vehicle: Klucel (hydroxypropylcellulose) (HPC)

In the case of O=[N+]([O-])c1ccc(-c2ccc(-c3ccccc3)cc2)cc1, the T/C (dose: 100.0 mg/kg/injection, schedule: Q01DX001 (ip), vehicle: acetone) is reported as 98 % of control, the T/C (dose: 100.0 mg/kg/injection, schedule: Q04DX003 (ip), vehicle: acetone) is reported as 91 % of control and the T/C (dose: 200.0 mg/kg/injection, schedule: Q01DX001 (ip), vehicle: acetone) is reported as 95 % of control. For the same molecule, the T/C (dose: 200.0 mg/kg/injection, schedule: Q04DX003 (ip), vehicle: acetone) was 86 % of control, the T/C (dose: 400.0 mg/kg/injection, schedule: Q01DX001 (ip), vehicle: acetone) was 92 % of control and the T/C (dose: 400.0 mg/kg/injection, schedule: Q04DX003 (ip), vehicle: acetone) was 89 % of control.
CCCCN1c2ccccc2NP1(=O)c1ccccc1 (stereo not given) was tested, and the T/C (dose: 100.0 mg/kg/injection, schedule: Q04DX003 (ip), vehicle: saline with Tween-80) was 94 % of control, the T/C (dose: 200.0 mg/kg/injection, schedule: Q04DX003 (ip), vehicle: saline with Tween-80) was 96 % of control and the T/C (dose: 400.0 mg/kg/injection, schedule: Q04DX003 (ip), vehicle: saline with Tween-80) was 97 % of control.
For O=C(Nc1cccc(Cl)c1)C1CCCC1=Nc1cccc(Cl)c1 (stereo not given), the T/C (dose: 50.0 mg/kg/injection, schedule: Q01DX001 (ip), vehicle: saline) was 103 % of control, the T/C [1] was 100 % of control and the T/C [2] was 103 % of control. The T/C [3] was 94 % of control.
For CC(=O)c1cccc(NC(=O)c2cccc(F)c2)c1, the T/C [4] was 95 % of control, the T/C [5] was 97 % of control and the T/C [6] was 95 % of control.
In the case of O=C1OC2=C(c3ccccc3)C(=O)OC2=C1c1ccccc1, the T/C [1] is reported as 97 % of control, the T/C [2] is reported as 104 % of control and the T/C [3] is reported as 95 % of control.
In the case of COC(=O)c1[nH]cnc1/N=N/N(C)CCO, the T/C (dose: 88.0 mg/kg/injection, schedule: Q01DX001 (ip), vehicle: saline) is reported as 95 % of control, the T/C [1] is reported as 104 % of control and the T/C (dose: 133.0 mg/kg/injection, schedule: Q01DX001 (ip), vehicle: saline) is reported as 97 % of control. The T/C [2] was 101 % of control and 107 % of control, the T/C (dose: 267.0 mg/kg/injection, schedule: Q01DX009 (ip), vehicle: saline) was 109 % of control and the T/C [7] was 103 % of control. The T/C [3] was 102 % of control, the T/C [8] was 100 % of control and the T/C (dose: 600.0 mg/kg/injection, schedule: Q01DX009 (ip), vehicle: saline) was 109 % of control. For the same molecule, the T/C (dose: 600.0 mg/kg/injection, schedule: Q01DX015 (ip), vehicle: saline) was 157 % of control and the T/C (dose: 900.0 mg/kg/injection, schedule: Q01DX009 (ip), vehicle: saline) was 111 % of control.
With COC(=O)CC(=O)C=P(c1ccccc1)(c1ccccc1)c1ccccc1 the T/C (dose: 12.5 mg/kg/injection, schedule: Q01DX009 (ip), vehicle: saline with Tween-80) was 98 % of control, the T/C (dose: 25.0 mg/kg/injection, schedule: Q01DX009 (ip), vehicle: saline with Tween-80) was 101 % of control and the T/C (dose: 50.0 mg/kg/injection, schedule: Q01DX009 (ip), vehicle: saline with Tween-80) was 95 % of control. The T/C (dose: 75.0 mg/kg/injection, schedule: Q01DX001 (ip), vehicle: saline) was 96 % of control, the T/C (dose: 100.0 mg/kg/injection, schedule: Q01DX009 (ip), vehicle: saline with Tween-80) was 89 % of control and the T/C (dose: 150.0 mg/kg/injection, schedule: Q01DX001 (ip), vehicle: saline) was 100 % of control. The T/C [7] was 93 % of control.
For O=C(Nc1cc([N+](=O)[O-])ccc1F)Nc1ccccc1C(F)(F)F, the T/C [9] was 96 % of control, the T/C [10] was 94 % of control and the T/C [11] was 91 % of control.
With O=S(=O)(CCCCCl)Cc1ccccc1 the T/C [1] was 101 % of control, the T/C (dose: 100.0 mg/kg/injection, schedule: Q01DX009 (ip), vehicle: saline) was 110 % of control and the T/C (dose: 100.0 mg/kg/injection, schedule: Q04DX003 (ip), vehicle: saline) was 104 % of control. For the same molecule, the T/C [2] was 96 % of control, the T/C (dose: 200.0 mg/kg/injection, schedule: Q01DX009 (ip), vehicle: saline) was 94 % of control and the T/C (dose: 200.0 mg/kg/injection, schedule: Q04DX003 (ip), vehicle: saline) was 104 % of control. For the same molecule, the T/C [3] was 93 % of control, the T/C [8] was 103 % of control and the T/C (dose: 400.0 mg/kg/injection, schedule: Q04DX003 (ip), vehicle: saline) was 93 % of control.
COC1CCC(N)CC1 (stereo not given) was tested, and the T/C [1] was 109 % of control, the T/C [2] was 107 % of control and the T/C [3] was 97 % of control.
CCN(CC)Cc1ccc([N+](=O)[O-])cc1 was tested, and the T/C (dose: 100.0 mg/kg/injection, schedule: Q04DX002 (ip), vehicle: saline) was 110 % of control and the T/C (dose: 200.0 mg/kg/injection, schedule: Q04DX002 (ip), vehicle: saline) was 104 % of control.
In the case of c1ccc(C(=C(c2ccccc2)c2ccccc2)c2ccccc2)cc1, the T/C [4] is reported as 99 % of control, the T/C [9] is reported as 97 % of control and the T/C [5] is reported as 94 % of control. For the same molecule, the T/C [10] was 97 % of control, the T/C [6] was 92 % of control and the T/C [11] was 96 % of control.
